Data on 3 compounds can be found in US7759384B2, “Carvedilol phosphate salts and/or solvates thereof, corresponding compositions, and/or methods of treatment” (SmithKline Beecham (Cork) Limited, priority 2002, dated 2010).

Usually solubility stands for the concentration that dissolves in the medium under given conditions.

For series [1] the following is noted: cited from earlier work.
Series [2] can be described thus: aqueous solubility of carvedilol phosphate salts compared with free base and other salts. It is filed as physicochemical. As to conditions: novel crystalline forms.

Read-outs that look alike come from different tables or passages of the source.

With `COc1ccccc1OCCNCC(O)COc1cccc2[nH]c3ccccc3c12` (racemic) [Carvedilol], the solubility in series [1] (neutral or alkaline media, above a pH of 9.0) was below 1 µg/mL. Moreover, the saturation solubility entry is on record as “about 100 μg/mL” in series [1] (pH=5, room temperature) and “about 23 μg/mL” in series [1] (pH=7, room temperature).

For `COc1ccccc1OCCNCC(O)COc1cccc2[nH]c3ccccc3c12.O=P(O)(O)O` (centres unmarked) [carvedilol dihydrogen phosphate], the “solubility compared to the free base of carvedilol” value in series [2] was “much higher solubility”. Take `COc1ccccc1OCCNCC(O)COc1cccc2[nH]c3ccccc3c12.Cl` (centres unmarked) [hydrochloride salt of carvedilol]: the “solubility in acidic medium” value in series [1] (salt generated in situ in acidic medium, which simulates gastric fluid) is on record as “less soluble”.
